Earlier results as cited in patent US20190314382A1, “COMPOUNDS AND PHARMACEUTICAL COMPOSITIONS THEREOF FOR THE TREATMENT OF INFLAMMATORY DISEASES” (Galapagos NV, priority 2016, published 2019).

Tested on: MRL/lpr mice
Details: cited from earlier work

SMILES: N#C/C(=C\c1ccc(O)c(O)c1)C(=O)NCc1ccccc1 [tyrphostin AG490]
- renal expression of monocyte chemotactic protein (MCP)-1, interferon (IFN)-γ and class II MHC: significantly inhibited
- renal infiltration of T cells and macrophages: reduced
